Data taken from patent US11236066B2, “Crystalline forms of niraparib tosylate” (Apotex Inc., priority 2019, dated 2022).
Where two headings read alike, the source gives them in different places.

Legend:
[1] = cited from earlier work; for Hygroscopicity: description in WO 2018/183354 A1, 4-methylbenzenesulfonate
[2] = 900 mL 0.01 N HCl buffer, 50 rpm, sample compressed at 1.5 metric tons for 1 minute
Method: Intrinsic dissolution rate (IDR) measurements were performed using a Wood apparatus. Samples were prepared by compressing the sample at 1.5 metric tons for 1 minute. A dissolution medium consisting of 900 mL 0.01 N HCl buffer, and rotation speed of 50 rpm was used for each experiment.

[3] = 1 g sample, agitated in ball mill 2 hrs at 30 Hz, ambient relative humidity 60%
Method: Samples (1 g) were initially placed in a small glass dish inside a desiccator for 30 minutes. The initial electric field of each sample was then measured with a JCI 140 Static Monitor (John Chubb Instrumentation, England) wherein the height of the field meter from top of the glass dish was 2.5 cm. […] Each sample was then placed in a 20 mL plastic vial and agitated inside of a ball mill (Retsch Mixer Mill MM 301) for 2 hrs at 30 Hz. After the agitation period, each sample was returned to the glass dish and the electric field was measured. The ambient relative humidity during the experiments was 60%.

[4] = CHMP Assessment Report; cited from earlier work

Structure (SMILES)	Hygroscopicity ([1]; listed as crystalline Form I)	Intrinsic Dissolution Rate [2]	Electric Field After Agitation [3]	Biopharmaceutics Classification System (BCS) class [4]	Hygroscopicity [1]	Weight gain in DVS ([1]; up to 95% relative humidity (RH))
Cc1ccc(S(=O)(=O)O)cc1.NC(=O)c1cccc2cn(-c3ccc([C@@H]4CCCNC4)cc3)nc12 [Niraparib tosylate crystalline Form I, 2-{4-[(3S)-piperidin-3-yl]phenyl}-2H-indazole 7-carboxamide 4-methylbenzenesulfonate]	non-hygroscopic	0.1451 mg min^−1 cm^−2	0.50 kV	Class II		
Cc1ccc(S(=O)(=O)O)cc1.NC(=O)c1cccc2cn(-c3ccc([C@@H]4CCCNC4)cc3)nc12 [crystalline Form III, 2-{4-[(3S)-piperidin-3-yl]phenyl}-2H-indazole 7-carboxamide 4-methylbenzenesulfonate]					very hygroscopic	15.8%
